Like-named read-outs stand apart in the source and are kept apart here.
Tests used:
IRAK4 [1] = molecular target: T1, IRAK4 (Homo sapiens (Human), UniProt Q9NWZ3); test: IRAK4 Biochemical HTRF Kinase Assay; details: read-out: IRAK4 HTRF biochemical: IC50
How it was run: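 HTRF KinEASE STK S1 format measuring IRAK4 phosphorylation of biotinylated peptide; reaction solution of 5 μM STK-S1, 10 mM ATP, 10 mM MgCl2 added (stock, to 10 μl final), 90 min at ambient temperature, detection 60 min. IC50 from sixteen-point duplicate curves by non-linear regression.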
Target sequence in this assay (Q9NWZ3 whole entry, species assumed): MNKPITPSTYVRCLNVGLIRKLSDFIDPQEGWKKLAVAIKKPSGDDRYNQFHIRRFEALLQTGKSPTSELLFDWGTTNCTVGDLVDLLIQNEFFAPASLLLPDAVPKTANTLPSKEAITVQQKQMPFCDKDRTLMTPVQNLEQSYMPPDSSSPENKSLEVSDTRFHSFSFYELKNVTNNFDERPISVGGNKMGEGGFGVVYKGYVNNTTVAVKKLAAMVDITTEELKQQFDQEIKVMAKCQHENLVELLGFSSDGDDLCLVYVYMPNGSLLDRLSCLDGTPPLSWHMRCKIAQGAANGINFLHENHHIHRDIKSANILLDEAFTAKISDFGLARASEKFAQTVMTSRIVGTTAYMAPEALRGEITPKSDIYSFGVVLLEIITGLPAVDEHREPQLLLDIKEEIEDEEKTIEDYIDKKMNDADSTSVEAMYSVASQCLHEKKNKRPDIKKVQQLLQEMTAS

IRAK4 [2] = molecular target: T1, IRAK4; test: IRAK4 Degradation HiBiT Assay; details: HiBiT-tagged Jurkat cells, 4 hrs; for Dmax: Jurkat; for DC50: read-out: Cellular IRAK4 HiBiT: DC50
Target sequence in this assay (Q9NWZ3 whole entry): as the sequence (Q9NWZ3 whole entry, species assumed) above

[3] = read-out: Cellular IRAK4 HiBiT: Dmax, Table 4
[4] = read-out: Cellular IRAK4 HiBiT: Dmax, Table 5, multiple runs

Compound Cc1ncsc1-c1ccc(CNC(=O)[C@@H]2C[C@@H](O)CN2C(=O)[C@@H](NC(=O)C2(F)CC2)C(C)(C)C)c(OCCOCCOCCOCCC(=O)N2CCN(c3nnc(-c4cnc(-c5ccc6cc(C#N)cnn56)cc4NC(C)C)s3)CC2)c1 [Example 49, (2S,4R)—N-(2-(2-(2-(2-(3-(4-(5-(6-(3-cyanopyrrolo[1,2-b]pyridazin-7-yl)-4-(isopropylamino)pyridin-3-yl)-1,3,4-thiadiazol-2-yl)piperazin-1-yl)-3-oxopropoxy)ethoxy)ethoxy)ethoxy)-4-(4-methylthiazol-5-yl)benzyl)-1-((S)-2-(1-fluorocyclopropane-1-carboxamido)-3,3-dimethylbutanoyl)-4-hydroxypyrrolidine-2-carboxamide] has an IC50 (IRAK4 [1]; Table 4) of 4.6 nM, an IC50 (IRAK4 [1]; Table 5, multiple runs) of 4.6 nM and a Dmax (IRAK4 [2]; [3]) of 111%. The Dmax (IRAK4 [2]; [4]) was 111%, the DC50 (IRAK4 [2]; Table 4) was 231 nM and the DC50 (IRAK4 [2]; Table 5, multiple runs) was 231 nM.
With CC(C)Nc1cc(-c2ccc3cc(C#N)cnn23)ncc1-c1nnc(N2CCN(C3CCN(C(=O)c4ccc5c(c4)C(=O)N(C4CCC(=O)NC4=O)C5)CC3)CC2)s1 (centres unmarked) [Example 77, 7-(5-(5-(4-(1-(2-(2,6-dioxopiperidin-3-yl)-3-oxoisoindoline-5-carbonyl)piperidin-4-yl)piperazin-1-yl)-1,3,4-thiadiazol-2-yl)-4-(isopropylamino)pyridin-2-yl)pyrrolo[1,2-b]pyridazine-3-carbonitrile] the IC50 (IRAK4 [1]; Table 5, multiple runs) was 0.5 nM, the Dmax (IRAK4 [2]; [4]) was 114% and the DC50 (IRAK4 [2]; Table 5, multiple runs) was 15.1 nM.
Cc1ncsc1-c1ccc(CNC(=O)[C@@H]2C[C@@H](O)CN2C(=O)[C@@H](NC(=O)C2(F)CC2)C(C)(C)C)c(OCCCCCCCC(=O)N2CCN(c3nnc(-c4cnc(-c5ccc6cc(C#N)cnn56)cc4NC(C)C)s3)CC2)c1 [Example 43, (2S,4R)—N-(2-((8-(4-(5-(6-(3-cyanopyrrolo[1,2-b]pyridazin-7-yl)-4-(isopropylamino)pyridin-3-yl)-1,3,4-thiadiazol-2-yl)piperazin-1-yl)-8-oxooctyl)oxy)-4-(4-methylthiazol-5-yl)benzyl)-1-((S)-2-(1-fluorocyclopropane-1-carboxamido)-3,3-dimethylbutanoyl)-4-hydroxypyrrolidine-2-carboxamide] showed an IC50 (IRAK4 [1]; Table 4) of 24.1 nM, an IC50 (IRAK4 [1]; Table 5, multiple runs) of 24 nM and a Dmax (IRAK4 [2]; [3]) of 78%. For the same compound, the Dmax (IRAK4 [2]; [4]) was 67%, the DC50 (IRAK4 [2]; Table 4) was 1170 nM and the DC50 (IRAK4 [2]; Table 5, multiple runs) was 1090 nM.
Work on CC(C)Nc1cc(-c2ccc3cc(C#N)cnn23)ncc1-c1nnc(N2CCN(C3CCN(C(=O)Cc4cccc5c4CN(C4CCC(=O)NC4=O)C5=O)CC3)CC2)s1 (centres unmarked) [Example 76, 7-(5-(5-(4-(1-(2-(2-(2,6-dioxopiperidin-3-yl)-1-oxoisoindolin-4-yl)acetyl)piperidin-4-yl)piperazin-1-yl)-1,3,4-thiadiazol-2-yl)-4-(isopropylamino)pyridin-2-yl)pyrrolo[1,2-b]pyridazine-3-carbonitrile] yielded an IC50 (IRAK4 [1]; Table 5, multiple runs) of 0.8 nM, a Dmax (IRAK4 [2]; [4]) of 100% and a DC50 (IRAK4 [2]; Table 5, multiple runs) of 13.1 nM.
For CNc1cc(-c2ccc3cc(C#N)cnn23)ncc1-c1nnc(C23CCC(NC(=O)CCOCCC(=O)N[C@H](C(=O)N4C[C@H](O)C[C@H]4C(=O)NCc4ccc(-c5scnc5C)cc4)C(C)(C)C)(CC2)CC3)s1 [Example 129], the IC50 (IRAK4 [1]; Table 5, multiple runs) was 1.2 nM, the Dmax (IRAK4 [2]; [4]) was 115% and the DC50 (IRAK4 [2]; Table 5, multiple runs) was 356 nM.
CNc1cc(-c2ccc3cc(C#N)cnn23)ncc1-c1nnc(C2CCC(NC(=O)Cn3ccc(C(=O)N[C@H](C(=O)N4C[C@H](O)C[C@H]4C(=O)N[C@@H](C)c4ccc(-c5scnc5C)cc4)C(C)(C)C)n3)CC2)s1 (stereo partly drawn) [Example 125, 1-(2-(((1r,4S)-4-(5-(6-(3-cyanopyrrolo[1,2-b]pyridazin-7-yl)-4-(methylamino)pyridin-3-yl)-1,3,4-thiadiazol-2-yl)cyclohexyl)amino)-2-oxoethyl)-N—((S)-1-((2S,4R)-4-hydroxy-2-(((S)-1-(4-(4-methylthiazol-5-yl)phenyl)ethyl)carbamoyl)pyrrolidin-1-yl)-3,3-dimethyl-1-oxobutan-2-yl)-1H-pyrazole-3-carboxamide] gave an IC50 (IRAK4 [1]; Table 5, multiple runs) of 1.7 nM, a Dmax (IRAK4 [2]; [4]) of 116% and a DC50 (IRAK4 [2]; Table 5, multiple runs) of 166 nM.
CC(C)Nc1cc(-c2ccc3cc(C#N)cnn23)ncc1-c1nnc(N2CCN(CC3CCN(c4ccc(C(=O)NC5CCC(=O)NC5=O)nc4)CC3)CC2)s1 (centres unmarked) [Example 33, 5-(4-((4-(5-(6-(3-cyanopyrrolo[1,2-b]pyridazin-7-yl)-4-(isopropylamino)pyridin-3-yl)-1,3,4-thiadiazol-2-yl)piperazin-1-yl)methyl)piperidin-1-yl)-N-(2,6-dioxopiperidin-3-yl)picolinamide] was tested, and the IC50 (IRAK4 [1]; Table 4) was 2.1 nM, the IC50 (IRAK4 [1]; Table 5, multiple runs) was 2.1 nM and the Dmax (IRAK4 [2]; [3]) was 14%. For the same compound, the DC50 (IRAK4 [2]; Table 4) was > 10000 nM and the DC50 (IRAK4 [2]; Table 5, multiple runs) was > 9980 nM.
In the case of CC(C)Nc1cc(-c2ccc3cc(C#N)cnn23)ncc1-c1nnc(N2CCN(C(=O)C3CCN(C(=O)CNc4cccc5c4C(=O)N(C4CCC(=O)NC4=O)C5=O)CC3)CC2)s1 (centres unmarked) [Example 73, 7-(5-(5-(4-(1-((2-(2,6-dioxopiperidin-3-yl)-1,3-dioxoisoindolin-4-yl)glycyl)piperidine-4-carbonyl)piperazin-1-yl)-1,3,4-thiadiazol-2-yl)-4-(isopropylamino)pyridin-2-yl)pyrrolo[1,2-b]pyridazine-3-carbonitrile], the IC50 (IRAK4 [1]; Table 5, multiple runs) is reported as 1.9 nM, the Dmax (IRAK4 [2]; [4]) is reported as 69% and the DC50 (IRAK4 [2]; Table 5, multiple runs) is reported as 25.2 nM.
For CNc1cc(-c2ccc3cc(C#N)cnn23)ncc1-c1nnc([C@H]2CC[C@H](NC(=O)CCCCCNc3ccc4c(c3)C(=O)N(C3CCC(=O)NC3=O)C4=O)CC2)s1 (some centres unmarked) [Example 68, N-((1r,4r)-4-(5-(6-(3-cyanopyrrolo[1,2-b]pyridazin-7-yl)-4-(methylamino)pyridin-3-yl)-1,3,4-thiadiazol-2-yl)cyclohexyl)-6-((2-(2,6-dioxopiperidin-3-yl)-1,3-dioxoisoindolin-5-yl)amino)hexanamide], the IC50 (IRAK4 [1]; Table 4) was 1.79 nM, the IC50 (IRAK4 [1]; Table 5, multiple runs) was 0.8 nM and the Dmax (IRAK4 [2]; [3]) was 82%. It also gave a Dmax (IRAK4 [2]; [4]) of 101%, a DC50 (IRAK4 [2]; Table 4) of 47.5 nM and a DC50 (IRAK4 [2]; Table 5, multiple runs) of 14.3 nM.
With CC(C)Nc1cc(-c2ccc3cc(C#N)cnn23)ncc1-c1nnc(N2CCN(CC3CCN(c4ccc5c(=O)n(C6CCC(=O)NC6=O)ccc5c4)CC3)CC2)s1 (centres unmarked) [Example 72, 7-(5-(5-(4-((1-(2-(2,6-dioxopiperidin-3-yl)-1-oxo-1,2-dihydroisoquinolin-6-yl)piperidin-4-yl)methyl)piperazin-1-yl)-1,3,4-thiadiazol-2-yl)-4-(isopropylamino)pyridin-2-yl)pyrrolo[1,2-b]pyridazine-3-carbonitrile] the IC50 (IRAK4 [1]; Table 5, multiple runs) was 3.1 nM, the Dmax (IRAK4 [2]; [4]) was 94% and the DC50 (IRAK4 [2]; Table 5, multiple runs) was 189 nM.
For CNc1cc(-c2ccc3cc(C#N)cnn23)ncc1-c1nnc(N2CCN(CCC3CCN(c4ccc5c(c4)C(=O)N(C4CCC(=O)NC4=O)C5=O)CC3)CC2)s1 (centres unmarked) [Example 187, 7-(5-(5-(4-(2-(1-(2-(2,6-dioxopiperidin-3-yl)-1,3-dioxoisoindolin-5-yl)piperidin-4-yl)ethyl)piperazin-1-yl)-1,3,4-thiadiazol-2-yl)-4-(methylamino)pyridin-2-yl)pyrrolo[1,2-b]pyridazine-3-carbonitrile], the IC50 (IRAK4 [1]; Table 5, multiple runs) was 0.9 nM, the Dmax (IRAK4 [2]; [4]) was 95% and the DC50 (IRAK4 [2]; Table 5, multiple runs) was 88.3 nM.
CNc1cc(-c2ccc3cc(C#N)cnn23)ncc1-c1nnc([C@H]2CC[C@H](NC(=O)[C@H]3C[C@@H](OCCNc4cccc5c4C(=O)N(C4CCC(=O)NC4=O)C5=O)C3)CC2)s1 (stereo partly drawn) [Example 69, (1s,3S)—N-((1r,4R)-4-(5-(6-(3-cyanopyrrolo[1,2-b]pyridazin-7-yl)-4-(methylamino)pyridin-3-yl)-1,3,4-thiadiazol-2-yl)cyclohexyl)-3-(2-((2-(2,6-dioxopiperidin-3-yl)-1,3-dioxoisoindolin-4-yl)amino)ethoxy)cyclobutane-1-carboxamide] gave an IC50 (IRAK4 [1]; Table 4) of 0.81 nM, an IC50 (IRAK4 [1]; Table 5, multiple runs) of 0.9 nM and a Dmax (IRAK4 [2]; [3]) of 98%. For the same compound, the Dmax (IRAK4 [2]; [4]) was 73%, the DC50 (IRAK4 [2]; Table 4) was 12.6 nM and the DC50 (IRAK4 [2]; Table 5, multiple runs) was 6.71 nM.

Reference: patent US12528814B2, “Bifunctional degraders of interleukin-1 receptor-associated kinases and therapeutic use thereof” (NURIX THERAPEUTICS, INC., priority 2020, dated 2026)
